This is an account of results in patent publication US4871661A, “Process for testing the carcinogenicity of a material or the presence of cancer-inducing factors in an environment” (priority 1985, dated 1989).

Data set [1] deals with cancer-associated phosphoprotein. Conditions: for induction of the cancer-associated phosphoprotein in the plasma: rat plasma, result in words.
For data set [2] the test system is unchanged. Put plainly: ELISA assay of purified 60K plasma protein fraction from rats exposed to test compound. Format: in vivo, rat (Sprague-Dawley strain). Here is the method: This example illustrates a process of the present invention in which the assay for the cancer-associated phosphoprotein is effected by means of an ELISA test.
Samples of the purified 60K protein fraction from the Sepharose CL-6B column used in Example 1 above were subjected to an ELISA assay. […] Also subjected to the same ELISA assay were purified protein fractions from the control rats and from a rat suffering from a hepatoma 7777 tumor.
The ELISA assay was conducted in the following manner. A sample of the cancer-associated phosphoprotein prepared in the manner described in Example 1 of the aforementioned parent application Ser. No. 554,439 was bound to a well in a plastic tray, and the well thereafter washed thoroughly. A polyclonal rabbit antibody serum prepared as described in Example 2 of the aforementioned parent application Ser. No. 554,439 was then mixed with the protein sample to be assayed and the resultant mixture incubated at 37° C. for 30 minutes. The mixture was then added to the well containing the cancer-associated phosphoprotein, and the tray incubated for one hour at 37° C., then washed thoroughly. Following this washing, there was added to the well a goat anti-rabbit IgG antibody serum conjugated to horseradish peroxidase enzyme, and the tray was incubated for one hour at 37° C. then washed thoroughly. The substrate for the horseradish peroxidase enzyme, namely 2,2-azino-di(3-ethylbenzthiazoline sulfonic acid) was added to the well and the tray incubated to 15 minutes at room temperature. The color development was then stopped by addition of a 2 mM solution of sodium azide and the intensity of the color in the wells determined using a spectrophotometer at […].
To determine the maximum possible optical density, a control test was run in which the test sample was replaced with a buffer containing no cancer-associated phosphoprotein; this optical density represents the maximum possible reaction of uninhibited antibody binding to the bound cancer-associated phosphoprotein. […] The optical density of a well containing as a control sample an equivalent fraction of normal rat plasma free of cancer-associated phosphoprotein is designated 0% inhibition; the optical density of this control sample should be close to that of the sample using the buffer solution The samples tested for the presence of the cancer-associated phosphoprotein are designated positive when the optical density exceeds that of the control value by two standard deviations. The concentration of cancer-associated phosphoprotein is directly related to the percentage inhibition and can be compared to that of the standard solution of the cancer-associated phosphoprotein.

In data set [3] the test system is rat. As to conditions: cited from earlier work.
Data set [4] deals with transformed cells. As to conditions: some types of transformed cells; cited from earlier work.
The subject of data set [5] is cancer-associated phosphoprotein. It is filed as in vivo, rat. As to conditions: acute or chronic treatment of rats. The text has this: Further experiments indicate that release of the cancer-associated phosphoprotein into the plasma was not induced upon induction of liver regeneration in the rat by partial hepatectomy, nor by acute or chronic treatment of the rats with the non-carcinogenic tumor promoter phenobarbital.

The mark [6] stands for this setting: ELISA inhibition, plasma fraction of treated rat, standard phosphoprotein solution = 100%, normal rat plasma fraction = 0%.
[7] abbreviates: 200 micromoles/kg, intraperitoneal, plasma ~21 days after exposure, control subtracted.
[8] abbreviates: 160 micromoles/kg, intraperitoneal, plasma ~21 days after exposure, control subtracted.
Where [9] appears, read: 210 micromoles/kg, intraperitoneal, plasma ~21 days after exposure, control subtracted.
Setting [10] is: 600 micromoles/kg, intraperitoneal, plasma ~21 days after exposure, control subtracted.
[11] abbreviates: 1 millimole/kg, intraperitoneal, plasma ~21 days after exposure, control subtracted.

Each structure is given as a SMILES string. Read-outs that look alike come from different tables or passages of the source.

Turning to `CNNC` [1,2-dimethylhydrazine], in data set [1] (560 micromoles/kg, intraperitoneal, plasma ~21 days after exposure, control subtracted), the “RNA-releasing Activity” value is given as 5.71 percent nuclear counts per min. For the same compound, the “Percentage Inhibition” value in data set [2] (setting [6]) was 79%. Turning to `O=[N+]([O-])c1ccc2ccc3cccc4ccc1c2c34` [1-Nitropyrene], in data set [1] (105 micromoles/kg, intraperitoneal, plasma ~21 days after exposure, control subtracted), the “RNA-releasing Activity” value is 5.30 percent nuclear counts per min. Further, the “Percentage Inhibition” value in data set [2] (setting [6]) came out at 74%. As to `Clc1cc2c(cc1Cl)Oc1cc(Cl)c(Cl)cc1O2` [2,3,7,8-Tetrachlorodibenzo-p-dioxine], the “toxicity in the rat” value in data set [3] is on record as “very potent toxins in the rat”. The “RNA-releasing Activity” value in data set [1] (0.125 micromoles/kg, intraperitoneal, plasma ~21 days after exposure, control subtracted) is 0.00 percent nuclear counts per min. The “induction of the cancer-associated phosphoprotein in the plasma” value (“induction” for short) in data set [1] is reported as “do not induce significant quantities of the cancer-associated phosphoprotein”.

For `CC(=O)Nc1ccc2c(c1)Cc1ccccc1-2` [2-Acetylaminofluorene], in data set [1] (setting [7]), the “RNA-releasing Activity” value is given as 5.11 percent nuclear counts per min. For the same compound, the “Percentage Inhibition” value in data set [2] (setting [6]) was found to be 87%. As for `Cc1c(F)ccc2ccc3cc4ccccc4c(C)c3c12` [2-Fluoro-1,12-dimethylbenz[a]anthracene], the “RNA-releasing Activity” value in data set [1] (setting [8]) is recorded as 0.10 percent nuclear counts per min. As to `Nc1ccc2ccccc2c1` [2-Naphthylamine], the “RNA-releasing Activity” value in data set [1] (500 micromoles/kg, intraperitoneal, plasma ~21 days after exposure, control subtracted) is given as 3.29 percent nuclear counts per min.

For the compound `Cc1ccc2cc3c(ccc4ccccc43)c3c2c1CC3` [3-Methylcholanthrene], in data set [1] (setting [8]), the “RNA-releasing Activity” value was 5.62 percent nuclear counts per min. Still for that read-out and setting: for `Cc1c2ccccc2c(C)c2c1ccc1ccccc12` [7,12-Dimethylbenz[a]anthracene] the value was 6.42 percent nuclear counts per min. With `c1ccc2nc3ccccc3cc2c1` [Acridine], the “RNA-releasing Activity” value in data set [1] (15 micromoles/kg, intraperitoneal, plasma ~21 days after exposure, control subtracted) was 0.00 percent nuclear counts per min. The “Percentage Inhibition” value in data set [2] (setting [6]) was found to be 2%. As for `COc1cc2c(c3oc(=O)c4c(c13)CCC4=O)[C@@H]1C=CO[C@@H]1O2` [Aflatoxin B1], in data set [1] (rat, in vivo), the “RNA-releasing Activity” value came out at 4.37. Consider `COc1cc2c(c3oc(=O)c4c(c13)CCOC4=O)[C@@H]1CCO[C@@H]1O2` [Aflatoxin G2], for which the “RNA-releasing Activity” value in data set [1] (rat, in vivo, ip) came out at 3.80. With `c1ccc2cc3ccccc3cc2c1` [Anthracene], the “RNA-releasing Activity” value in data set [1] (setting [8]) was 0.17 percent nuclear counts per min. `c1ccc2cc3c(ccc4ccccc43)cc2c1` [Benz[a]anthracene]: the “RNA-releasing Activity” value in data set [1] (setting [8]) was 4.92 percent nuclear counts per min. `c1ccc2c(c1)cc1ccc3cccc4ccc2c1c34` [Benzo[a]pyrene]: in data set [1] (setting [9]), the “RNA-releasing Activity” value is listed as 7.73 percent nuclear counts per min. For the compound `c1ccc2c(c1)c1cccc3ccc4cccc2c4c31` [Benzo[e]pyrene], in data set [1] (setting [9]), the “RNA-releasing Activity” value is 3.37 percent nuclear counts per min. On to `Cn1c(=O)c2c(ncn2C)n(C)c1=O` [Caffeine], for which the “RNA-releasing Activity” value in data set [1] (rat, in vivo, ip) is on record as 0.07. Further, the “Percentage Inhibition” value in data set [2] (rat, in vivo) came to 14. Take `ClC(Cl)(Cl)Cl` [Carbon tetrachloride, carbon tetrachloride]: the “Percentage Inhibition” value in data set [2] (ELISA inhibition, plasma fraction of treated rat, standard phosphoprotein solution = 100%, normal rat plasma fraction = 0%, listed as Carbon tetrachloride-1) is on record as 1%; in data set [2] (ELISA inhibition, plasma fraction of treated rat, standard phosphoprotein solution = 100%, normal rat plasma fraction = 0%, listed as Carbon tetrachloride-2), 10%. Consider `CN(C)C=O` [Dimethylformamide], for which, in data set [1] (setting [7]), the “RNA-releasing Activity” value is 1.30 percent nuclear counts per min. Moreover, in data set [1], the “induction” value is given as “induced significant quantities”. Further, the “ability to induce differentiation of transformed cells” value in data set [4] was “reversably induce the differentiation of some types of transformed cells”. Take `CCOC(N)=O` [Ethyl carbamate (urethane), Ethyl carbamate]: the “RNA-releasing Activity” value in data set [1] (11.2 millimoles/kg, intraperitoneal, plasma ~21 days after exposure, control subtracted) was 3.80 percent nuclear counts per min. As to `c1ccc2c(c1)Cc1ccccc1-2` [Fluorene], the “RNA-releasing Activity” value in data set [1] (setting [8]) is 0.14 percent nuclear counts per min. With `CCN(N=O)C(N)=O` [N--Ethyl-N--nitrosourea], the “RNA-releasing Activity” value in data set [1] (setting [10]) is on record as 4.50 percent nuclear counts per min. Regarding `CN(N=O)C(N)=O` [N--Methyl-N--nitrosourea], the “RNA-releasing Activity” value in data set [1] (440 micromoles/kg, intraperitoneal, plasma ~21 days after exposure, control subtracted) is listed as 4.69 percent nuclear counts per min.

With `CCCCN(CCCC)N=O` [N--Nitroso-N,N--dibutylamine], the “RNA-releasing Activity” value in data set [1] (760 micromoles/kg, intraperitoneal, plasma ~21 days after exposure, control subtracted) was 5.44 percent nuclear counts per min. The “Percentage Inhibition” value in data set [2] (setting [6]) is on record as 75%. For `CCN(CC)N=O` [N--Nitroso-N,N--diethylamine], the “RNA-releasing Activity” value in data set [1] (setting [11]) is 4.21 percent nuclear counts per min.

Turning to `CN(C)N=O` [N--Nitroso-N,N--dimethylamine], the “RNA-releasing Activity” value in data set [1] (135 micromoles/kg, intraperitoneal, plasma ~21 days after exposure, control subtracted) is reported as 3.40 percent nuclear counts per min.

Take `c1ccc2ccccc2c1` [Naphthalene]: the “RNA-releasing Activity” value in data set [1] (setting [11]) is given as 0.12 percent nuclear counts per min. The “Percentage Inhibition” value in data set [2] (setting [6]) stood at 18%. `O=C(O)C(F)(F)C(F)(F)C(F)(F)C(F)(F)C(F)(F)C(F)(F)C(F)(F)C(F)(F)C(F)(F)F` [Nonadecafluorodecanoic acid]: the “toxicity in the rat” value in data set [3] is listed as “very potent toxins in the rat”. The “RNA-releasing Activity” value in data set [1] (50 micromoles/kg, intraperitoneal, plasma ~21 days after exposure, control subtracted) is on record as 0.00 percent nuclear counts per min. The “induction” value in data set [1] is “do not induce significant quantities of the cancer-associated phosphoprotein”. Regarding `CCC1(c2ccccc2)C(=O)NC(=O)NC1=O` [Phenobarbital], in data set [1] (80 micromoles/kg, intraperitoneal, plasma ~21 days after exposure, control subtracted), the “RNA-releasing Activity” value is reported as 0.08 percent nuclear counts per min. In data set [5], the “release of the cancer-associated phosphoprotein into the plasma” value is given as “not induced”. With `c1cc2ccc3cccc4ccc(c1)c2c34` [Pyrene], the “RNA-releasing Activity” value in data set [1] (setting [8]) was 0.05 percent nuclear counts per min. Take `Cc1cc2nc3c(=O)[nH]c(=O)nc-3n(C[C@H](O)[C@H](O)[C@H](O)CO)c2cc1C` [Riboflavin]: the “RNA-releasing Activity” value in data set [1] (265 micromoles/kg, intraperitoneal, plasma ~21 days after exposure, control subtracted) is 0.01 percent nuclear counts per min. The “Percentage Inhibition” value in data set [2] (setting [6]) amounted to 11%. Take `C=CCc1ccc2c(c1)OCO2` [Safrole]: in data set [1] (setting [10]), the “RNA-releasing Activity” value is on record as 5.90 percent nuclear counts per min. In addition, in data set [2] (setting [6]), the “Percentage Inhibition” value is listed as 80%.
